The record followed here is PMC5218480 (PLoS ONE, 2017).

Each structure is given as a SMILES string.

The test has as its system MV-4-11 cells. The experiment in a line: Gene expression microarray analysis (Affymetrix PrimeView) and GSEA. Details: RFU PODN (11730768_x_at) / Fold change /veh PODN (11730768_x_at) / RFU LINC00158 (11744669_a_at) / Fold change /veh LINC00158 (11744669_a_at) / RFU DUSP10 (11751237_a_at) / Fold change /veh DUSP10 (11751237_a_at) / RFU ID3 (11757404_x_at) / Fold change /veh ID3 (11757404_x_at) / RFU PLEKHG5 (11737974_s_at) / Fold change /veh PLEKHG5 (11737974_s_at) / RFU LRRC4B (11730491_at) / Fold change /veh LRRC4B (11730491_at) / RFU GIMAP4 (11747438_a_at) / Fold change /veh GIMAP4 (11747438_a_at) / RFU KRT8 (11758183_x_at) / Fold change /veh KRT8 (11758183_x_at) / RFU CNN1 (11734310_a_at) / Fold change /veh CNN1 (11734310_a_at) / RFU VPS37D (11726825_at) / Fold change /veh VPS37D (11726825_at) / RFU C10orf10 (11716522_x_at) / Fold change /veh C10orf10 (11716522_x_at) / RFU KIR2DL2 /// KIR2DL4 /// KIR2DL5A /// KIR2DL5B /// KIR2DS1 /// KIR2DS2 /// KIR2DS3 /// KIR2DS4 /// KIR3DL3 /// KIR3DL3 /// KIR3DS1 (11738374_at) / Fold change /veh KIR2DL2 /// KIR2DL4 /// KIR2DL5A /// KIR2DL5B /// KIR2DS1 /// KIR2DS2 /// KIR2DS3 /// KIR2DS4 /// KIR3DL3 /// KIR3DL3 /// KIR3DS1 (11738374_at) / RFU C1QL1 (11718748_at) / Fold change /veh C1QL1 (11718748_at) / RFU TMPRSS4 (11747572_a_at) / Fold change /veh TMPRSS4 (11747572_a_at) / RFU HAMP (11756126_x_at) / Fold change /veh HAMP (11756126_x_at) / RFU RNFT2 (11725882_a_at) / Fold change /veh RNFT2 (11725882_a_at) / RFU NR4A2 (11747474_a_at) / Fold change /veh NR4A2 (11747474_a_at) / RFU ABCC12 (11746883_a_at) / Fold change /veh ABCC12 (11746883_a_at) / RFU TMEM136 (11760407_x_at) / Fold change /veh TMEM136 (11760407_x_at) / RFU CLDN22 /// WWC2 (11732394_at) / Fold change /veh CLDN22 /// WWC2 (11732394_at) / RFU HLA-DPB1 (11760878_x_at) / Fold change /veh HLA-DPB1 (11760878_x_at) / RFU SPINT1 (11716480_a_at) / Fold change /veh SPINT1 (11716480_a_at) / RFU GAP43 (11754022_s_at) / Fold change /veh GAP43 (11754022_s_at) / RFU A4GNT (11735810_at) / Fold change /veh A4GNT (11735810_at) / RFU PRB3 (11715151_x_at) / Fold change /veh PRB3 (11715151_x_at) / RFU TUBB4B (11761932_at) / Fold change /veh TUBB4B (11761932_at) / RFU CAPN14 (11732068_a_at) / Fold change /veh CAPN14 (11732068_a_at) / RFU TMCC2 (11721928_a_at) / Fold change /veh TMCC2 (11721928_a_at) / RFU IRGQ (11745062_a_at) / Fold change /veh IRGQ (11745062_a_at) / RFU FAM174B (11720279_a_at) / Fold change /veh FAM174B (11720279_a_at) / RFU TMPRSS4 (11748680_a_at) / Fold change /veh TMPRSS4 (11748680_a_at) / RFU FAM212B (11763350_a_at) / Fold change /veh FAM212B (11763350_a_at) / RFU PLEKHG5 (11743358_a_at) / Fold change /veh PLEKHG5 (11743358_a_at) / RFU ZSCAN30 (11745921_a_at) / Fold change /veh ZSCAN30 (11745921_a_at) / RFU CMKLR1 (11741424_a_at) / Fold change /veh CMKLR1 (11741424_a_at) / RFU LOC101060620 /// MAPK8IP1 (11723275_at) / Fold change /veh LOC101060620 /// MAPK8IP1 (11723275_at) / RFU SPTSSB (11747773_x_at) / Fold change /veh SPTSSB (11747773_x_at) / RFU PRSS12 (11739890_at) / Fold change /veh PRSS12 (11739890_at) / RFU BIN1 (11741810_x_at) / Fold change /veh BIN1 (11741810_x_at) / RFU WNT11 (11732464_a_at) / Fold change /veh WNT11 (11732464_a_at) / RFU C10orf10 (11716521_a_at) / Fold change /veh C10orf10 (11716521_a_at) / RFU C5orf56 (11738089_at) / Fold change /veh C5orf56 (11738089_at) / RFU CYB561 (11721691_x_at) / Fold change /veh CYB561 (11721691_x_at) / RFU ANKRD19P (11752326_a_at) / Fold change /veh ANKRD19P (11752326_a_at) / RFU OR2T12 /// OR2T33 /// OR2T8 (11738714_s_at) / Fold change /veh OR2T12 /// OR2T33 /// OR2T8 (11738714_s_at) / RFU VCAN (11748164_a_at) / Fold change /veh VCAN (11748164_a_at) / RFU JSRP1 (11732532_at) / Fold change /veh JSRP1 (11732532_at) / RFU KRTAP10-11 (11738290_x_at) / Fold change /veh KRTAP10-11 (11738290_x_at) / RFU MYO3A (11730013_a_at) / Fold change /veh MYO3A (11730013_a_at) / RFU EBF3 (11725865_a_at) / Fold change /veh EBF3 (11725865_a_at) / RFU CAMK2N1 (11719241_x_at) / Fold change /veh CAMK2N1 (11719241_x_at) / RFU C5orf56 (11738088_a_at) / Fold change /veh C5orf56 (11738088_a_at) / RFU OLFML3 (11715873_a_at) / Fold change /veh OLFML3 (11715873_a_at) / RFU LOC100653217 /// NTM (11731650_a_at) / Fold change /veh LOC100653217 /// NTM (11731650_a_at) / RFU MAPK11 (11762145_a_at) / Fold change /veh MAPK11 (11762145_a_at) / RFU FIZ1 (11724087_x_at) / Fold change /veh FIZ1 (11724087_x_at) / RFU OASL (11726364_x_at) / Fold change /veh OASL (11726364_x_at) / RFU SOX15 (11748057_x_at) / Fold change /veh SOX15 (11748057_x_at) / RFU CD79A (11719716_a_at) / Fold change /veh CD79A (11719716_a_at) / RFU HIST1H1D (11736915_at) / Fold change /veh HIST1H1D (11736915_at) / RFU CASKIN2 (11723855_a_at) / Fold change /veh CASKIN2 (11723855_a_at) / RFU LOC730098 (11760151_x_at) / Fold change /veh LOC730098 (11760151_x_at) / RFU OR4N2 (11742367_at) / Fold change /veh OR4N2 (11742367_at) / RFU PRRT2 (11749266_a_at) / Fold change /veh PRRT2 (11749266_a_at) / RFU SNX32 (11753110_a_at) / Fold change /veh SNX32 (11753110_a_at) / RFU CDHR5 (11726645_a_at) / Fold change /veh CDHR5 (11726645_a_at) / RFU RCAN1 (11760418_a_at) / Fold change /veh RCAN1 (11760418_a_at) / RFU FAM167A (11723789_a_at) / Fold change /veh FAM167A (11723789_a_at) / RFU FAM26E (11764081_at) / Fold change /veh FAM26E (11764081_at) / RFU ISYNA1 (11749810_s_at) / Fold change /veh ISYNA1 (11749810_s_at) / RFU ACY1 (11761880_at) / Fold change /veh ACY1 (11761880_at) / RFU 11764098_at / Fold change /veh 11764098_at / RFU SAMD14 (11745864_x_at) / Fold change /veh SAMD14 (11745864_x_at) / RFU NPB (11741838_a_at) / Fold change /veh NPB (11741838_a_at) / RFU TMPRSS6 (11731388_a_at) / Fold change /veh TMPRSS6 (11731388_a_at) / RFU KRTAP10-2 (11738614_at) / Fold change /veh KRTAP10-2 (11738614_at) / RFU ARHGAP8 /// PRR5-ARHGAP8 (11727945_x_at) / Fold change /veh ARHGAP8 /// PRR5-ARHGAP8 (11727945_x_at) / RFU KRTAP5-7 /// NADSYN1 (11734609_at) / Fold change /veh KRTAP5-7 /// NADSYN1 (11734609_at) / RFU RASL12 (11751679_a_at) / Fold change /veh RASL12 (11751679_a_at) / RFU CDKN2B (11736163_a_at) / Fold change /veh CDKN2B (11736163_a_at) / RFU PRF1 (11729649_at) / Fold change /veh PRF1 (11729649_at) / RFU, ZNF638 /// ZNF638-IT1 / Fold change vs veh, ZNF638 /// ZNF638-IT1 / RFU, PANK3 / Fold change vs veh, PANK3 / RFU, SH3YL1 / Fold change vs veh, SH3YL1 / RFU, ZEB2 / Fold change vs veh, ZEB2 / RFU, NRIP1 / Fold change vs veh, NRIP1 / RFU, PTTG1IP / Fold change vs veh, PTTG1IP / RFU, CAPN2 / Fold change vs veh, CAPN2 / RFU, MED14 / Fold change vs veh, MED14 / RFU, SNORA58 / Fold change vs veh, SNORA58 / RFU, C1orf63 / Fold change vs veh, C1orf63 / RFU, LRRFIP1 / Fold change vs veh, LRRFIP1 / RFU, NDUFAF7 / Fold change vs veh, NDUFAF7 / RFU, SLC12A2 / Fold change vs veh, SLC12A2 / RFU, IBTK / Fold change vs veh, IBTK / RFU, ESF1 / Fold change vs veh, ESF1 / Fold change vs veh, TMEM50B / RFU, TAOK1 / Fold change vs veh, TAOK1 / RFU, ACBD3 / Fold change vs veh, ACBD3 / RFU, TMA16 / Fold change vs veh, TMA16 / RFU, RWDD3 / Fold change vs veh, RWDD3 / RFU, BCAT1 / Fold change vs veh, BCAT1 / RFU, EDEM3 / Fold change vs veh, EDEM3 / RFU, TMEM33 / Fold change vs veh, TMEM33 / RFU, WDR75 / Fold change vs veh, WDR75 / RFU, AHCTF1 / Fold change vs veh, AHCTF1 / RFU, TFRC / Fold change vs veh, TFRC / RFU, ZDHHC17 / Fold change vs veh, ZDHHC17 / RFU, NOM1 / Fold change vs veh, NOM1 / RFU, ARL8B / Fold change vs veh, ARL8B / RFU, ZBTB11 / Fold change vs veh, ZBTB11 / RFU, TAMM41 / Fold change vs veh, TAMM41 / RFU, KIAA1704 /// LOC100996395 / Fold change vs veh, KIAA1704 /// LOC100996395 / RFU, ING1 / Fold change vs veh, ING1 / RFU, TRMT61B / Fold change vs veh, TRMT61B / RFU, FUBP3 / Fold change vs veh, FUBP3 / RFU, TP53 / Fold change vs veh, TP53 / RFU, TNKS2 / Fold change vs veh, TNKS2 / RFU, ZFP14 / Fold change vs veh, ZFP14 / RFU, ACTR2 / Fold change vs veh, ACTR2 / RFU, PPP3R1 / Fold change vs veh, PPP3R1 / RFU, PIK3R1 / Fold change vs veh, PIK3R1 / RFU, HNRNPA1 / Fold change vs veh, HNRNPA1 / RFU, RNF170 / Fold change vs veh, RNF170 / RFU, ZNF28 / Fold change vs veh, ZNF28 / RFU, RNGTT / Fold change vs veh, RNGTT / RFU, OGT / Fold change vs veh, OGT / RFU, BRD1 / Fold change vs veh, BRD1 / RFU, MARS / Fold change vs veh, MARS / RFU, ZNF655 / Fold change vs veh, ZNF655 / RFU, FAHD1 / Fold change vs veh, FAHD1 / RFU, BDP1 / Fold change vs veh, BDP1 / RFU, LRRCC1 / Fold change vs veh, LRRCC1 / RFU, ARID1A / Fold change vs veh, ARID1A / RFU, ZNF146 / Fold change vs veh, ZNF146 / RFU, ZNF330 / Fold change vs veh, ZNF330 / RFU, GPN3 / Fold change vs veh, GPN3 / RFU, C9orf123 / Fold change vs veh, C9orf123 / RFU, N4BP2L2 / Fold change vs veh, N4BP2L2 / RFU, ARFIP1 / Fold change vs veh, ARFIP1 / RFU, FAM179B / Fold change vs veh, FAM179B / RFU, BCL10 / Fold change vs veh, BCL10 / RFU, UHRF1BP1L / Fold change vs veh, UHRF1BP1L / RFU, BET1 / Fold change vs veh, BET1 / RFU, CNOT2 / Fold change vs veh, CNOT2 / RFU, ZNF268 / Fold change vs veh, ZNF268 / Fold change vs veh, ZNF507 / RFU, DGCR2 / Fold change vs veh, DGCR2 / RFU, WDSUB1 / Fold change vs veh, WDSUB1 / Fold change vs veh, HSP90B1 /// MIR3652 / RFU, ADSS / Fold change vs veh, ADSS / RFU, GK / Fold change vs veh, GK / RFU, ZNF148 / Fold change vs veh, ZNF148 / RFU, TAF9 / Fold change vs veh, TAF9 / RFU, SLC1A5 / Fold change vs veh, SLC1A5 / RFU, SLMO2 / Fold change vs veh, SLMO2 / RFU, ABCC4 / Fold change vs veh, ABCC4 / RFU, LOC101060439 /// RAP1B / Fold change vs veh, LOC101060439 /// RAP1B / RFU, RFX7 / Fold change vs veh, RFX7 / RFU, GTPBP10 / Fold change vs veh, GTPBP10 / RFU, CNEP1R1 / Fold change vs veh, CNEP1R1 / RFU, BIVM-ERCC5 /// ERCC5 / Fold change vs veh, BIVM-ERCC5 /// ERCC5 / RFU, ILF3 / Fold change vs veh, ILF3 / RFU 11762660_at / Fold change /veh 11762660_at / RFU VCAN (11757783_s_at) / Fold change /veh VCAN (11757783_s_at) / RFU DDX43 (11728927_at) / Fold change /veh DDX43 (11728927_at) / RFU KRT8 (11758188_x_at) / Fold change /veh KRT8 (11758188_x_at) / RFU NKD1 (11759106_at) / Fold change /veh NKD1 (11759106_at) / RFU SRD5A1 (11742802_a_at) / Fold change /veh SRD5A1 (11742802_a_at) / RFU TPSAB1 /// TPSB2 (11721975_s_at) / Fold change /veh TPSAB1 /// TPSB2 (11721975_s_at) / RFU GSTM3 (11746129_a_at) / Fold change /veh GSTM3 (11746129_a_at) / RFU IL23R (11737362_x_at) / Fold change /veh IL23R (11737362_x_at) / RFU TMEM51 (11727254_a_at) / Fold change /veh TMEM51 (11727254_a_at) / RFU PIWIL2 (11732686_x_at) / Fold change /veh PIWIL2 (11732686_x_at) / RFU ORM1 (11744905_x_at) / Fold change /veh ORM1 (11744905_x_at) / RFU CCDC152 (11743942_at) / Fold change /veh CCDC152 (11743942_at) / RFU ECM1 (11717891_a_at) / Fold change /veh ECM1 (11717891_a_at) / RFU IL23R (11748794_a_at) / Fold change /veh IL23R (11748794_a_at) / RFU TNFAIP8L3 (11732012_x_at) / Fold change /veh TNFAIP8L3 (11732012_x_at) / RFU MBOAT4 (11741988_at) / Fold change /veh MBOAT4 (11741988_at) / RFU 11764193_at / Fold change /veh 11764193_at / RFU TMEM53 (11763286_at) / Fold change /veh TMEM53 (11763286_at) / RFU MAGEB2 (11727129_at) / Fold change /veh MAGEB2 (11727129_at) / RFU TMEM200A (11744735_a_at) / Fold change /veh TMEM200A (11744735_a_at) / RFU CCDC152 (11751479_a_at) / Fold change /veh CCDC152 (11751479_a_at) / RFU FAM211A (11726209_a_at) / Fold change /veh FAM211A (11726209_a_at) / RFU RGS16 (11746705_a_at) / Fold change /veh RGS16 (11746705_a_at) / RFU VCAN (11755009_s_at) / Fold change /veh VCAN (11755009_s_at) / RFU RHOB (11743442_s_at) / Fold change /veh RHOB (11743442_s_at) / RFU RGS16 (11720943_a_at) / Fold change /veh RGS16 (11720943_a_at) / RFU RGS16 (11720944_at) / Fold change /veh RGS16 (11720944_at) / RFU, VPS4B / Fold change vs veh, VPS4B / RFU, CREB1 / Fold change vs veh, CREB1 / RFU, DNAJC13 / Fold change vs veh, DNAJC13 / RFU, GNAQ / Fold change vs veh, GNAQ / RFU, CDK5R1 / Fold change vs veh, CDK5R1 / RFU, ZRANB3 / Fold change vs veh, ZRANB3 / RFU, CUL4A / Fold change vs veh, CUL4A / RFU, CCNY / Fold change vs veh, CCNY / RFU, UFL1 / Fold change vs veh, UFL1 / RFU, COG3 / Fold change vs veh, COG3 / RFU, DIAPH2 / Fold change vs veh, DIAPH2 / RFU, SKA2 / Fold change vs veh, SKA2 / RFU, AFF3 / Fold change vs veh, AFF3 / RFU, LMF1 / Fold change vs veh, LMF1 / RFU, IPO11 / Fold change vs veh, IPO11 / RFU, DFFB / Fold change vs veh, DFFB / RFU, FOXP1 / Fold change vs veh, FOXP1 / RFU, CARD8 / Fold change vs veh, CARD8 / RFU, STRN3 / Fold change vs veh, STRN3 / RFU, ADK / Fold change vs veh, ADK / RFU, RASSF2 / Fold change vs veh, RASSF2 / RFU, WIPF1 / Fold change vs veh, WIPF1 / RFU, LARP1B / Fold change vs veh, LARP1B / RFU, RASA1 / Fold change vs veh, RASA1 / RFU, RB1 / Fold change vs veh, RB1 / RFU, PPFIA1 / Fold change vs veh, PPFIA1 / RFU, MAT2A / Fold change vs veh, MAT2A / RFU, CCT5 / Fold change vs veh, CCT5 / RFU, WDR92 / Fold change vs veh, WDR92 / RFU, CUX1 / Fold change vs veh, CUX1 / RFU, TTC7A / Fold change vs veh, TTC7A / RFU, TMEM135 / Fold change vs veh, TMEM135 / RFU, DEPTOR / Fold change vs veh, DEPTOR / RFU, CPM / Fold change vs veh, CPM / RFU, DNAJB6 / Fold change vs veh, DNAJB6 / RFU, CACNA2D3 / Fold change vs veh, CACNA2D3 / RFU, DTX4 / Fold change vs veh, DTX4 / RFU, TFCP2 / Fold change vs veh, TFCP2 / RFU, GMCL1 /// GMCL1P1 / Fold change vs veh, GMCL1 /// GMCL1P1 / RFU, AEBP2 / Fold change vs veh, AEBP2 / RFU, SNHG1 /// SNORD22 /// SNORD25 /// SNORD26 /// SNORD27 /// SNORD28 /// SNORD29 /// SNORD31 / Fold change vs veh, SNHG1 /// SNORD22 /// SNORD25 /// SNORD26 /// SNORD27 /// SNORD28 /// SNORD29 /// SNORD31 / Fold change (Aza/veh), C12orf56 (ProbeSet 11735607_a_at) / Fold change (ACY-1035/veh), C12orf56 (ProbeSet 11735607_a_at) / Fold change (Aza/veh), FGFR1OP (ProbeSet 11751329_s_at) / Fold change (ACY-1035/veh), FGFR1OP (ProbeSet 11751329_s_at) / Fold change (Aza/veh), VPS36 (ProbeSet 11739960_a_at) / Fold change (ACY-1035/veh), VPS36 (ProbeSet 11739960_a_at) / RFU SYPL1 (11715823_x_at) / Fold change /veh SYPL1 (11715823_x_at) / RFU IGFBP7 (11715501_s_at) / Fold change /veh IGFBP7 (11715501_s_at) / RFU REEP3 (11722064_at) / Fold change /veh REEP3 (11722064_at) / RFU IGLL1 (11728026_x_at) / Fold change /veh IGLL1 (11728026_x_at): dose or concentration left out as unconfirmed. The following applies: ProbeSet 11741123_x_at; LIST D. It is filed as cell-based, human.

In the case of `Nc1ncn([C@@H]2O[C@H](CO)[C@@H](O)[C@H]2O)c(=O)n1` [azacitidine], the “RFU, ADK” value was 188.85 RFU.
